Test results reported in US20260137809A1, “GENE THERAPY VECTORS FOR TREATMENT OF CANCER” (Siren Biotechnology, Inc., priority 2022, published 2026).

Tests used:
[1] = system: X^on splicing control element; test: Kinetics of eGFP induction with branaplam and RG7800-HCl, live cell imaging (Example 4); type: cell-based; conditions: for induced eGFP expression level compared with the constitutive construct: AAV-CAG-X^on-eGFP versus constitutive AAV-CAG-eGFP, inducer at optimal concentrations; for course of eGFP payload expression after induction: AAV-CAG-X^on-eGFP, monitored for 14, 28 or 84 hours
Procedure: Cells were seeded in 96-well plates for 24 hours and transduced with AAV-CAG-X^on-eGFP or constitutive AAV-CAG-eGFP as the positive control, and treated with or without branaplam or RG7800-HCl. Fluorescent eGFP payload expression was monitored for a total of 14 hours (FIGS. 21A-21D) or 28 hours (FIGS. 22A-22D) by live cell imaging.

X^on induction system = test: Dose studies with various inducer molecules, AAV-CAG-X^on-eGFP fluorescence (Example 3); type: cell-based; conditions: cells transduced with 1e^6 vg/cell AAV-CAG-X^on-eGFP; inducer added after 24 hours at 4 concentrations
Procedure: Briefly, cells were seeded in black 96-well plates for 24 hours and transduced with 1e^6 vg/cell AAV-CAG-X^on-eGFP as described in Example 1. After 24 hours, each inducer was added directly into the cell media at 4 different concentrations each. Cells expressing the eGFP payload were visualized by fluorescent live imaging (20× magnification) after induction with branaplam (FIG. 20A) or RG7800 (FIG. 20B). Cells were counter-stained with […] Hoechst to identify nuclei and determine total cell counts for normalization. The number of eGFP-positive cells as well as the green fluorescence intensity was measured for each well and each condition up to 9 hours post-induction to determine the kinetics of the payload expression post-induction (FIGS. 20C-20H).

X^on splicing element = test: Inducible AAV-GFP / AAV-eGFP expression after the inducer branaplam, live fluorescent imaging (Example 2); type: cell-based, human; conditions: HEK293-T cells transduced with AAV-CAG-X^on-eGFP, branaplam 125 nM
Text: Adherent human HEK293-T cells were transduced with inducible AAV-GFP, followed by fluorescent imaging for GFP expression pre- and post-administration of an inducer molecule (e.g., branaplam). The data is seen in FIG. 17.
Adherent human HEK293-T cells were transduced with AAV-GFP at varying dosages, followed by administration of an inducer molecule (e.g., branaplam), and monitored for GFP expression over several hours to determine initial expression kinetics at different AAV dosages in vitro. The data is seen in FIG. 19.
In a similar set of experiments, HEK293-T cells were plated in a 96-well plate for 24 hours and transduced with a broad range of multiplicity of infection (MOI) using a constitutively-expressing payload expression construct, AAV-CAG-eGFP, to determine the necessary MOI for detectable eGFP expression prior to advancing to the inducible constructs described in Example 1. MOIs tested ranged from 3E4 to 4E6 vg/cell. Transduction efficacy was assessed by measuring the eGFP payload expression from transduced cells using a fluorescent microscopy imager (FIG. 18). Once an MOI was selected, the inducible AAV-CAG-X^on-eGFP was tested with an inducer molecule, branaplam at 125 nM, 24 hours post-transduction. […] Control cells were transduced with AAV-CAG-X^on-eGFP without the addition of an inducer. […]

[2] = system: X^on splicing control element; test: ON/OFF control of fLuc expression with cycles of branaplam (Example 6); type: cell-based, human; conditions: HEK293-T, AAV-CAG-X^on-fLuc, MOI 2.5E5 vg/cell
Procedure: HEK293-T cells were transduced with AAV and then branaplam, and after 24 hours of induction with branaplam, supernatants were harvested and assayed for luciferase expression, and the media was replaced with fresh medium without branaplam. Supernatants for the next timepoint were then harvested after 24 hours in the condition without branaplam, and the cycle was repeated (e.g., one or two or more times; FIG. 25A). Briefly, HEK293-T cells were transduced with an MOI of 2.5E5 vg/cell of AAV-CAG-X^on-fLuc (FIG. 25B) for 24 hours, followed by addition of branaplam at 3 different concentrations at hour 24 for an additional 24 hours (“ON”). Supernatants were then harvested for the measurement of fLuc, and media was replaced with fresh media lacking branaplam (“OFF”) for 24 hours. Supernatants were harvested after 24 hours in the OFF state. fLuc luminescent signal was measured for each cycle in sample supernatants at each time point and condition described (FIG. 25C).

[3] = system: X^on splicing control element; test: ON/OFF control of hIFNβ expression with branaplam, ELISA of supernatants (Example 7); type: cell-based, human; conditions: HEK293-T, AAV-CAG-X^on-hIFNβ, MOI 2.5e^5 vg/cell
Procedure: Briefly, HEK293-T cells were transduced with an MOI of 2.5e^5 vg/cell of AAV-CAG-X^on-hIFNβ or constitutive AAV-CAG-hIFNβ for 24 hours. 24 hours post-transduction with AAV, branaplam was added to the cell media to induce human IFNβ (hIFNβ) expression (“ON”). After 24 hours, media supernatants were harvested for payload measurement and fresh media lacking Branaplam (“OFF”). 24 hours later, media supernatants were harvested for payload detection (FIG. 25A). Amounts of hIFNβ were measured in picograms per milliliter (pg/mL) (FIG. 26A) using an ELISA kit for hIFNβ in supernatants before and after induction with branaplam, and after removal of branaplam. FIG. 26B depicts the expression of hIFNβ following transduction with AAV-CAG-X^on-hIFNβ normalized to the levels of expression obtained with the constitutive payload.

Row | Structure (SMILES) | induced eGFP expression level compared with the constitutive construct [1] | course of eGFP payload expression after induction [1] | active concentration for induction of eGFP payload expression (X^on induction system) | detectable GFP and eGFP expression, earliest time post-induction (X^on splicing element; 24 hours post-transduction, imaging every 30 minutes) | course of GFP and eGFP signal post-induction (X^on splicing element; read up to 5 hours) | fLuc expression in OFF conditions (without branaplam for 24 hours) [2] | re-induction of fLuc expression achievable and detectable, number of cycles [2] | dose of branaplam needed to mediate reliable payload expression and cycle control ([2]; 3 concentrations, 24 hours ON / 24 hours OFF) | number of repeat ON/OFF cycles on the same transduced cells [3] | time to induced expression of hIFNβ after induction ([3]; ELISA of supernatant) | time until hIFNβ expression stopped after removal of branaplam ([3]; ELISA of supernatant)
1 | CCc1nc(C)cn2nc(-c3cc(=O)n4cc(C5CCN(C)CC5)cc(C)c4n3)cc12.Cl [RG7800-HCl] | nearly the same levels of expression | continued to increase over the first 12 hours, followed by a slower increase to 24 hours | 20 µM | – | – | – | – | – | – | – | –
2 | CC1(C)CC(Oc2ccc(-c3ccc(-c4cn[nH]c4)cc3O)nn2)CC(C)(C)N1 [branaplam] | nearly the same levels of expression | continued to increase over the first 12 hours, followed by a slower increase to 24 hours | – | 3 h | continuing to increase up to 5 hours post-induction | reliably reduced expression of the fLuc | at least 2 full induction cycles | ≥ 200 nM | up to 2 repeat cycles | ≤ 24 h | ≤ 24 h
3 | CCc1nc(C)cn2nc(-c3cc(=O)n4cc(C5CCN(C)CC5)cc(C)c4n3)cc12 [RG7800] | – | – | 20 µM | – | – | – | – | – | – | – | –
